Results on four compounds are retold here after patent US7759510B2, “Platinum complexes and methods of use” (University of South Florida, priority 2003, dated 2010).

Data set [1] concerns the target T1, Stat3 (Mus musculus, UniProt P42227).
T1 construct: Nuclear extracts were prepared from NIH3T3/hEGFR cell that overexpress human epidermal growth factor (EGF) receptor and stimulated with EGF; endogenous in cells; host or cells: NIH3T3/hEGFR fibroblasts, EGF-stimulated (6 ng/ml, 15 min), nuclear extract
The experiment in a line: EMSA of nuclear extracts, Stat3 DNA-binding activity to hSIE probe. The settings on record: in vitro. In kind it is biochemical. The method, then:
Nuclear Extract Preparation and Analysis by EMSA of HK-Designated Platinum Complexes.
Nuclear extracts were prepared from NIH3T3/hEGFR cell that overexpress human epidermal growth factor (EGF) receptor and stimulated with EGF (6 ng/ml) for 15 min. Nuclear extracts were pre-incubated with compounds for 30 min at room temperature prior to incubation with radiolabeled probe. The ^32P-labeled oligonucleotide probe used is hSIE (high affinity sis-inducible element, m67 variant, 5′-[…]-3′) (SEQ ID NO:1) that binds both Stat1 and Stat3.
Other platinum (IV) complexes were evaluated for inhibitory activity against STAT DNA-binding in vitro.
For orientation: A gel shift assay detects complexes by their altered migration in electrophoresis.

A short description of data set [2]: Reduction of CPA-7 platinum complex by glutathione (UV kinetics at 226 nm). It counts as physicochemical. As to conditions: 20 μm CPA-7 in PBS/20% DMSO with 10 mM glutathione. The method, then: FIGS. 5A-C show inertness of CPA-7 platinum complex to reduction by glutathione. 20 μm CPA-7 in PBS/20% DMSO with […]. […] Reduction is attributed to room light.
FIGS. 5A-C show the inertness of CPA-7 to glutathione reduction. In the figures, 20 μm CPA-7 was added in PBS/20% DMSO with 10 mM glutathione. The readings were initiated in late evening where data points were collected every 10 minutes at the lambda max for CPA-7, 226 nm. […] Data was collected on a Varian Cary 50 fitted with a fibreoptic probe in the kinetics mode. The Cary 50 uses a pulsed Xenon lamp with discontinuous irradiation between readings. A 25-mL volumetric flask was used for the solution with a magnetic stirring bar at slow speed.

For data set [3], the system named is Stat3. In words: Stat3 signaling, growth inhibition and apoptosis in cells that contain constitutive Stat3 activity. It counts as cell-based. The settings on record: Src-transformed mouse fibroblasts, human tumor cells of the breast, prostate, mouse melanoma cells. From the text: Methods of the invention comprise inhibiting function of a STAT by contacting a cell expressing a STAT with a platinum complex of the invention wherein the complex is taken in or otherwise provided inside the cell. Platinum complexes of the invention can physically interact with the DNA-binding domain of Stat3 and thereby disrupts its ability to bind to DNA.

For the next data set, the system named is A549 cells. In words: MTT assay, percent survival of A549 cells. It counts as cell-based. As to conditions: A549; for IC50: Table 2, read-out: Calculated IC 50 (uM concentration).

Molecules are shown by their SMILES. Entries after “also recorded” stand apart in the source; their conditions may differ. Read-outs that look alike come from different tables or passages of the source.

T1 sequence (P42227 whole entry): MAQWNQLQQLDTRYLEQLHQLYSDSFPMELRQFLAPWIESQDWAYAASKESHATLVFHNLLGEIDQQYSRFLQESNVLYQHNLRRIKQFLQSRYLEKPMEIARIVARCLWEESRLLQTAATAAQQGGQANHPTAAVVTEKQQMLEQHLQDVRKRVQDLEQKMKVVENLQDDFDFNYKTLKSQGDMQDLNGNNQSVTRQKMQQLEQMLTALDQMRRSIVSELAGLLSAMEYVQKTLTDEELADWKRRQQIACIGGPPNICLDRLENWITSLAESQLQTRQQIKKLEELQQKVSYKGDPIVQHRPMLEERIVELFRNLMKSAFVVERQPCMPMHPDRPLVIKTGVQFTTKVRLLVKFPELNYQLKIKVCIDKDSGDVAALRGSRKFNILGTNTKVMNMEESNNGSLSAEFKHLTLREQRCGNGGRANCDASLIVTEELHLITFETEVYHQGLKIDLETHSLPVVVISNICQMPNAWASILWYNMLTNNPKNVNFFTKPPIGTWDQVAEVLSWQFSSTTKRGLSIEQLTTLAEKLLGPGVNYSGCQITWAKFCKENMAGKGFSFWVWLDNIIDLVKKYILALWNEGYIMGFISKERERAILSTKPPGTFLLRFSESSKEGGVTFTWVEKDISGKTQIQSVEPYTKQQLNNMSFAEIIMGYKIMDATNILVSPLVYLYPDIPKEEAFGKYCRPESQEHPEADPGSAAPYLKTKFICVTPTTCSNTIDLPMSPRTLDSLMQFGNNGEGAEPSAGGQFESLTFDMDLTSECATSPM

Take `[NH2][Pt]([NH2])([Cl])([Cl])([Cl])[N+](=O)[O-]` [CPA-7]: the “Disruption of Stat3 activity / ability to bind its consensus binding sequence” value (“Disruption of Stat3 activity / ability” below) on Stat3 [1] is “strongly disrupt Stat3 activity”. In data set [2], the “Reduction by glutathione (GSH)” value was “stability against GSH reduction; also recorded: not appreciably reduced by GSH” and the “Sensitivity to light (reduction by room light)” value is given as “sensitivity to light”. In the data set on Stat3 [3], the “Cell growth inhibition and apoptosis” value is “induce cell growth inhibition and apoptosis”; the Stat3 signaling function result is “abrogate Stat3 signaling function”.
In the case of `O=[N+]([O-])[Pt]1([Cl])([Cl])([Cl])[NH]CC[NH]1` [CPA-1], in the data set on Stat3 [3], the “Cell growth inhibition and apoptosis” value was “induce cell growth inhibition and apoptosis”; the Stat3 signaling function entry is given as “abrogate Stat3 signaling function”.
Turning to `[NH2][Pt]([NH2])([Cl])([Cl])([N+](=O)[O-])[o+]1c2cc(=O)ccc-2c(-c2ccccc2C(=O)O)c2ccc(O)cc21` [CPA-39], the “Average Absorbance” value in the data set on A549 cells (Table 1, 10 μM) is reported as 2.5313; with A549 cells (Table 1, 20 μM), 2.4307; in the data set with A549 cells (Table 1, 30 μM) it was 2.3599; with A549 cells (Table 1, 40 μM), 1.9611; with A549 cells (Table 1, 50 μM), 1.0318; with A549 cells (Table 1, 60 μM) it was 0.7776. Also, the “Average Absorbance” value came to 0.9798 with A549 cells (Table 1, 70 μM); 2.6556 in the data set on A549 cells (Table 3, 10 μM); 2.4616 in the data set with A549 cells (Table 3, 20 μM); 2.0894 in the data set with A549 cells (Table 3, 30 μM); 1.3568 in the data set with A549 cells (Table 3, 40 μM); 0.6566 in the data set on A549 cells (Table 3, 50 μM). In addition, the “Average Absorbance” value in the data set on A549 cells (Table 3, 60 μM) turned out to be 0.6086; with A549 cells (Table 3, 70 μM), 0.6166. The “Percent Survival” value in the data set with A549 cells (Table 1, 10 μM) is reported as 107.2085%; in the data set with A549 cells (Table 1, 20 μM) it was 102.9478%; in the data set on A549 cells (Table 1, 30 μM), 99.9492%; with A549 cells (Table 1, 40 μM), 83.0587%; in the data set on A549 cells (Table 1, 50 μM) it was 43.7000%; in the data set on A549 cells (Table 1, 60 μM), 32.9338%. Also, the “Percent Survival” value was 41.4976% in the data set on A549 cells (Table 1, 70 μM); 108.7069% in the data set with A549 cells (Table 3, 10 μM); 100.7655% in the data set with A549 cells (Table 3, 20 μM); 85.5295% in the data set on A549 cells (Table 3, 30 μM); 55.5405% in the data set on A549 cells (Table 3, 40 μM); 26.8779% with A549 cells (Table 3, 50 μM). Further, the “Percent Survival” value in the data set on A549 cells (Table 3, 60 μM) came to 24.9130%; in the data set on A549 cells (Table 3, 70 μM), 25.2405%. In the data set with A549 cells (linear trend from percent survival vs. concentration data of Table 1), the IC50 is 56.4 µM. Further, the “Disruption of Stat3 activity / ability” value at Stat3 [1] was “strongly disrupt Stat3 activity”.
With `[NH2][Pt]([NH2])([Cl])([Cl])([N]1C(=O)CC(C(=O)O)NC1=O)[N+](=O)[O-]` (stereo not shown) [CPA-55], the “Average Absorbance” value with A549 cells (Table 1, 10 μM) is given as 2.4481; with A549 cells (Table 1, 20 μM), 2.3731; in the data set on A549 cells (Table 1, 30 μM), 2.3268; with A549 cells (Table 1, 40 μM), 1.3780; in the data set with A549 cells (Table 3, 10 μM), 2.4587; in the data set with A549 cells (Table 3, 20 μM) it was 2.4875. Further, the “Average Absorbance” value is reported as 1.6902 with A549 cells (Table 3, 30 μM); 0.6503 in the data set on A549 cells (Table 3, 40 μM); 0.4894 with A549 cells (Table 3, 50 μM); 0.7082 in the data set on A549 cells (Table 3, 60 μM); 0.5733 with A549 cells (Table 3, 70 μM). In addition, the “Percent Survival” value in the data set with A549 cells (Table 1, 10 μM) stood at 103.6847%; with A549 cells (Table 1, 20 μM), 100.5082%; in the data set with A549 cells (Table 1, 30 μM), 98.5473%; with A549 cells (Table 1, 40 μM) it was 58.3626%; in the data set with A549 cells (Table 3, 10 μM) it was 100.6468%; in the data set with A549 cells (Table 3, 20 μM) it was 101.8257%. Further, the “Percent Survival” value with A549 cells (Table 3, 30 μM) is 69.1883%; in the data set on A549 cells (Table 3, 40 μM), 26.6200%; in the data set on A549 cells (Table 3, 50 μM), 20.0336%; in the data set on A549 cells (Table 3, 60 μM), 28.9901%; with A549 cells (Table 3, 70 μM), 23.4680%. For the same compound, the IC50 with A549 cells (extrapolated from incomplete data (10-40 uM; CPA-31 10-30 μM), outside the measured range) is 54.2 µM. Besides, the “Disruption of Stat3 activity / ability” value on Stat3 [1] was “strongly disrupt Stat3 activity”.
